# Measurements as given in patent USRE49735E1 (BRISTOL-MYERS SQUIBB COMPANY, priority 2010, dated 2023).
# Where “and” joins values, the source holds several entries; their conditions need not be identical. Identical values can stand only once.
# Target: human mGluR5A (Homo sapiens, UniProt P41594)
# Assay: mGluR5 FLIPR Assay
# Format: cell-based
# Conditions: positive modulator activity; HEK293 (ZF) cells with human mGluR5A and rat GLAST; Ca++ response to ~EC10 glutamate
# Protocol: HEK293 (ZF) cells stably transfected with human mGluR5A (pIRES neo) and the rat glutamate-aspartate transporter (GLAST; pIRES puro) are grown in a monolayer culture at 37° C. in 5% CO2 and fed with Minimum Essential Medium (MEM) supplemented with 10% dialysed fetal bovine serum. 24 hours prior to assay, cells are enzymatically dissociated from the culture flask (Trypsin, 0.25%), spun down (1000 rpm, 3 min), resuspended, and plated on Greiner black clear bottomed PDL-coated 384-well plates at a density of 30 thousand cells/well. […] Plates are incubated in dye at 37° C. in 5% CO2 for 60 minutes prior to delivery of test compounds in assay buffer. Test compounds are incubated with cells in the presence of dye for 10 minutes prior to being read on the FLIPR platform (Molecular Devices). A Ca^++ signal is induced in the assay plates via the delivery of an ˜EC10 concentration of the endogenous agonist 1-glutamate; images are acquired at 1 Hz for 100 seconds post-delivery of agonist stimulus. Positive modulator activity (i.e. the ability of test compounds to increase the Ca^++ response to a sub-maximal concentration of agonist) is normalized to a saturating concentration of a known mGluR5 PAM run in each assay plate. An EC50 concentration of test compounds is derived from 4-parameter logistic curve fits of transformed fluoresence data via proprietary software suite.
# Sequence of human mGluR5A (P41594 21-1180 isoform P41594-2): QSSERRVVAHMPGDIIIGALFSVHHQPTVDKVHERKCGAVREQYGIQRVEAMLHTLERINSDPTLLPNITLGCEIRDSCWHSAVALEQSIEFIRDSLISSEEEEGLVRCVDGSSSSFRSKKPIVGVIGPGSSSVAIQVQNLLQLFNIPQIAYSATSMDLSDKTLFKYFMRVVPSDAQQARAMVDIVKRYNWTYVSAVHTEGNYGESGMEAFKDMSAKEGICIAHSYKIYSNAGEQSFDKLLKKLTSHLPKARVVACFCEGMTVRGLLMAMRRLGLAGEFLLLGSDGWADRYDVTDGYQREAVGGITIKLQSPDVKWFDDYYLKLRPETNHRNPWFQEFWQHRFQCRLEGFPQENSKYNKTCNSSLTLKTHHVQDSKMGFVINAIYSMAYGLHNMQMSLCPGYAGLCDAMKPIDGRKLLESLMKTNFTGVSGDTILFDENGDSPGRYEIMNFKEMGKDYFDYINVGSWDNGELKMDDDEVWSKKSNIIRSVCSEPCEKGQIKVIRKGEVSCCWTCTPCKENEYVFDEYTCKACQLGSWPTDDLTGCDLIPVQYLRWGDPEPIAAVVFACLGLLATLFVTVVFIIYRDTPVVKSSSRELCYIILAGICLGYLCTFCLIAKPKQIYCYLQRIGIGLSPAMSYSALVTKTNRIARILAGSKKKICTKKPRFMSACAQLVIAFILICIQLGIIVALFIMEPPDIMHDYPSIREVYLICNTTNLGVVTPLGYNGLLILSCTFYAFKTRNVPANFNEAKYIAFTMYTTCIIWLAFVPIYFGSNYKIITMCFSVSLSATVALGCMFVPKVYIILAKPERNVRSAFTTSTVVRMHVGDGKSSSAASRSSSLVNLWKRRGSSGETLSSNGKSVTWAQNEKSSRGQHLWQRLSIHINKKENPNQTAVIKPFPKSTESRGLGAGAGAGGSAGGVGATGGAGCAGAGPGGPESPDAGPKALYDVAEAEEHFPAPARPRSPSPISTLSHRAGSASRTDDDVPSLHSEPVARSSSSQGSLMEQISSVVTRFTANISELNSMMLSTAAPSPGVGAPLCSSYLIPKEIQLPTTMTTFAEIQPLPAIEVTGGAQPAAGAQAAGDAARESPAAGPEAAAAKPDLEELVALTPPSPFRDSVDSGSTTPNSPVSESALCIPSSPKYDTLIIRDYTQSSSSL
row,EC50,Compound
1,> 1 µM,"Cc1cccc([C@@H]2OC(=O)N[C@@H]2c2cccc(C#Cc3ccccc3)c2)c1 (racemic) [Example 98, cis-4-(3-(phenylethynyl)phenyl)-5-m-tolyloxazolidin-2-one]"
2,< 0.1 µM,"Cc1cccc([C@@H]2OC(=O)N[C@H]2c2cccc(C#Cc3ccccc3)c2)c1 (racemic) [Example 99, trans-4-(3-(phenylethynyl)phenyl)-5-m-tolyloxazolidin-2-one]"
3,0.1 to 1 µM,"Cc1ccc([C@@H]2OC(=O)N[C@H]2c2cccc(C#Cc3ccccc3)c2)cc1C (racemic) [Example 100, Trans-5-(3,4-dimethylphenyl)-4-(3-(phenylethynyl)phenyl)oxazolidin-2-one]"
4,< 0.1 µM,"O=C1N[C@@H](c2cccc(C#Cc3ccccc3)c2)[C@H](c2cccs2)O1 (racemic) [Example 103, trans-4-(3-(phenylethynyl)phenyl)-5-(thiophen-2-yl)oxazolidin-2-one]"
5,< 0.1 µM,"Cc1ccc([C@@H]2OC(=O)N[C@H]2c2cccc(C#Cc3ccccc3)c2)cc1 (racemic) [Example 106, (±)-(phenylethynyl)phenyl)-5-p-tolyloxazolidin-2-one]"
6,< 0.1 µM,"O=C1N[C@H](c2cccc(C#Cc3ccccc3)c2)[C@@H](c2cccc(F)c2)O1 (racemic) [Example 111, Trans-5-(3-fluorophenyl)-4-(3-(phenylethynyl)phenyl)oxazolidin-2-one]"
7,> 1 µM,O=C1N[C@H](c2ccnc(C#Cc3ccccc3)n2)[C@@H](c2cc(F)ccc2F)O1 (racemic) [Example 270]
8,> 1 µM,O=C1N[C@H](c2cc(C#Cc3ccccc3)ncn2)[C@@H](c2cccc(F)c2)O1 (racemic) [Example 271]
9,> 1 µM,O=C1N[C@H](c2nccc(C#Cc3ccccc3)n2)[C@@H](c2cccc(F)c2)O1 (racemic) [Example 272]
10,0.1 to 1 µM and 0.688 µM,"O=C1N[C@H](c2cncc(C#Cc3ccccc3)c2)[C@H](c2ncco2)O1 (racemic) [Example 337, (±)-(4R,5R)-5-(Oxazol-2-yl)-4-(5-(phenylethynyl)pyridin-3-yl)oxazolidin-2-one]"
11,< 0.1 µM,"C[C@]1(c2cncc(C#Cc3ccccc3)c2)NC(=O)O[C@H]1c1cc(F)ccc1F (racemic) [Example 405, (+/−)-5-(2,5-Difluorophenyl)-4-methyl-4-(5-(phenylethynyl)pyridin-3-yl)oxazolidin-2-one]"
12,< 0.1 µM,"O=C1N[C@@H](c2cccc(C#Cc3ccccc3)c2)[C@H](c2cccnc2)O1 (relative stereo) [Example 116, Trans-4-(3-(phenylethynyl)phenyl)-5-(pyridin-3-yl)oxazolidin-2-one]"
13,0.1 to 1 µM and 0.283 µM,"COc1cccc([C@@H]2OC(=O)N[C@@H]2c2cccc(C#Cc3ccccc3)c2)c1 (single isomer, unassigned) [Example 3]"
14,> 30 µM,"COc1cccc([C@H]2OC(=O)N[C@H]2c2cccc(C#Cc3ccccc3)c2)c1 (single isomer, unassigned) [Example 4]"
15,< 0.1 µM,"COc1cccc([C@H]2OC(=O)N[C@@H]2c2cccc(C#Cc3ccccc3)n2)c1 (single isomer, unassigned) [Example 5]"
16,> 1 µM,"COc1cccc([C@@H]2OC(=O)N[C@H]2c2cccc(C#Cc3ccccc3)n2)c1 (single isomer, unassigned) [Example 6]"
17,< 0.1 µM,"O=C1N[C@H](c2cccc(C#Cc3ccccc3)n2)[C@@H](c2ccccc2)O1 (single isomer, unassigned) [Example 10]"
18,> 1 µM,"O=C1N[C@@H](c2cccc(C#Cc3ccccc3)n2)[C@H](c2ccccc2)O1 (single isomer, unassigned) [Example 11]"
19,> 1 µM,"O=C1N[C@@H](c2cccc(C#Cc3cccc(F)c3)n2)[C@H](c2ccccc2)O1 (single isomer, unassigned) [Example 13]"
20,> 1 µM,"O=C1N[C@H](c2cccc(C#Cc3ccccc3F)n2)[C@@H](c2ccccc2)O1 (single isomer, unassigned) [Example 14]"
21,> 1 µM,"O=C1N[C@@H](c2cccc(C#Cc3ccccc3F)n2)[C@H](c2ccccc2)O1 (single isomer, unassigned) [Example 15]"

row,EC50,Compound
1,< 0.1 µM,"O=C1N[C@H](c2cccc(C#Cc3ccc(F)cc3)n2)[C@@H](c2ccccc2)O1 (single isomer, unassigned) [Example 16]"
2,> 1 µM,"O=C1N[C@@H](c2cccc(C#Cc3ccc(F)cc3)n2)[C@H](c2ccccc2)O1 (single isomer, unassigned) [Example 17]"
3,> 30 µM,"O=C1N[C@H](c2cc(C#Cc3ccccc3)ccn2)[C@@H](c2ccccc2)O1 (single isomer, unassigned) [Example 18]"
4,> 1 µM,"O=C1N[C@@H](c2cc(C#Cc3ccccc3)ccn2)[C@H](c2ccccc2)O1 (single isomer, unassigned) [Example 19]"
5,> 1 µM,"O=C1N[C@H](c2cccc(C#Cc3ccccn3)n2)[C@@H](c2ccccc2)O1 (single isomer, unassigned) [Example 24]"
6,> 1 µM,"O=C1N[C@@H](c2cccc(C#Cc3ccccn3)n2)[C@H](c2ccccc2)O1 (single isomer, unassigned) [Example 25]"
7,0.1 to 1 µM and 0.367 µM,"O=C1N[C@H](c2cccc(C#Cc3cccnc3)n2)[C@@H](c2ccccc2)O1 (single isomer, unassigned) [Example 26]"
8,> 1 µM,"O=C1N[C@@H](c2cccc(C#Cc3cccnc3)n2)[C@H](c2ccccc2)O1 (single isomer, unassigned) [Example 27]"
9,> 1 µM,"COc1cccc([C@@H]2OC(=O)N[C@H]2c2cncc(C#Cc3ccccn3)c2)c1 (single isomer, unassigned) [Example 28]"
10,> 1 µM,"COc1cccc([C@H]2OC(=O)N[C@@H]2c2cncc(C#Cc3ccccn3)c2)c1 (single isomer, unassigned) [Example 29]"
11,> 1 µM,"COc1cccc([C@@H]2OC(=O)N[C@H]2c2cncc(C#Cc3csc(C)n3)c2)c1 (single isomer, unassigned) [Example 30]"
12,> 1 µM,"COc1cccc([C@H]2OC(=O)N[C@@H]2c2cncc(C#Cc3csc(C)n3)c2)c1 (single isomer, unassigned) [Example 31]"
13,> 1 µM,"COc1cccc([C@@H]2OC(=O)N[C@H]2c2cncc(C#Cc3ccccc3)c2)c1 (single isomer, unassigned) [Example 32]"
14,< 0.1 µM,"COc1cccc([C@H]2OC(=O)N[C@@H]2c2cncc(C#Cc3ccccc3)c2)c1 (single isomer, unassigned) [Example 33]"
15,> 1 µM,"COc1cccc([C@H]2OC(=O)N[C@@H]2c2ccnc(C#Cc3ccccc3)c2)c1 (single isomer, unassigned) [Example 36]"
16,< 0.1 µM,"COc1cccc([C@@H]2OC(=O)N[C@H]2c2ccnc(C#Cc3ccccc3)c2)c1 (single isomer, unassigned) [Example 37]"
17,> 1 µM,"O=C1N[C@H](c2cncc(C#Cc3ccccc3)c2)[C@@H](c2ccccc2)O1 (single isomer, unassigned) [Example 38]"
18,< 0.1 µM,"O=C1N[C@@H](c2cncc(C#Cc3ccccc3)c2)[C@H](c2ccccc2)O1 (single isomer, unassigned) [Example 39]"
19,> 1 µM,"O=C1N[C@@H](c2cncc(C#Cc3ccccc3)c2)[C@H](c2ccc(F)cc2)O1 (single isomer, unassigned) [Example 40]"
20,< 0.1 µM,"O=C1N[C@H](c2cncc(C#Cc3ccccc3)c2)[C@@H](c2ccc(F)cc2)O1 (single isomer, unassigned) [Example 41]"
